Entries after “also recorded” stand apart in the source; their conditions may differ.
Key:
[1] = Tasting in strawberry flavoured sugar sweetened yoghurt; settings: 1.5% fat yoghurt, 8% sucrose, strawberry flavour 0.015%
Description: Strawberry Flavoured Sugar Sweetened Yoghurt
In a 1.5% fat yoghurt base, sweetened with 8% sucrose by weight, flavoured with a proprietary strawberry flavour @ 0.015% several different N-acyl aminoacids were added.
(§1) Samples were prepared and evaluated by expert tasters. Tasters were asked to describe the samples focusing on authentic taste, mouthfeel, fullness, salty-ness, salivation, umami, sweetness, juiciness, richness, long lastingness and fattiness.
Test in a Strawberry Yoghurt
Base: Yoghurt 1.5% fat yoghurt, 8% sucrose, proprietary strawberry flavour @ 0.015%
(§2) Samples were evaluated by expert tasters. Tasters were asked to describe the samples focusing on authentic taste, mouthfeel, fullness, salivation, salty-ness, umami, sweetness, juiciness, richness, long lastingness and fattiness.

[2] = Tasting in Activa strawberry yoghurt; settings: 2 ppm, 13.5% sugar, 3.2% fat
Description: Activa Strawberry Yoghurt
In a Full fat, Activa strawberry flavoured yoghurt containing 13.5% sugar, 3.2% fat C18:2-gaba and C18:0-leu at 2 ppm

[3] = Tasting in mango juice drink, 1% clear mango juice; settings: 8% sucrose, 0.1% citric acid, mango flavour 0.05%
Description: Comparison in a Mango Juice Drink
Base is 8% sucrose, 0.1% citric acid, 1% clear mango juice, and a proprietary mango flavour at 0.05%.
(§3) Samples were evaluated by expert tasters. Tasters were asked to describe the samples focusing on authentic taste, mouthfeel, fullness, salty-ness, salivation, umami, sweetness, juiciness, richness, long lastingness and fattiness.
Base is water, 8% sucrose, 0.1% citric acid, 1% clear mango juice, proprietary mango flavour @ 0.05%
as §2
Base is water, 8% sucrose, 0.1% citric acid, 1% clear mango juice, proprietary mango flavour @0.05%
(§4) Samples were evaluated by expert tasters. Tasters were asked to describe the samples focusing on authentic taste, mouthfeel, fullness, salty-ness, salivation, umami, sweetness, juiciness, richness, long lastingness and fattiness
Base is 8% sucrose, 0.1% citric acid, 1% clear mango juice, proprietary mango flavour @ 0.05%
(§5) Samples were evaluated by expert tasters. Tasters were asked to describe the samples focusing on authentic taste, mouth feel, fullness, salivation, salty-ness, umami, sweetness, juiciness, richness, long lastingness and fattiness
Base is water, 8% sucrose, 0.1% citric acid, 1% clear mango juice, proprietary mango flavour @ 0.05%.
Test in a Mango Juice Drink

[4] = Tasting in strawberry drink; settings: 0.5 ppm; 7% sucrose, 0.1% citric acid, strawberry flavour 0.015%
Description: as §1
Comparison in a Strawberry Drink
Base is 7% sucrose, 0.1% citric acid, and a proprietary strawberry flavour @ 0.015%
as §3
Base is water, 7% sucrose, 0.1% citric acid, proprietary strawberry flavour @ 0.015%
as §2
Test in a Strawberry Drink
Base is 7% sucrose, 0.1% citric acid, proprietary strawberry flavour @ 0.015%

Test on Tang = settings: 1 ppm, orange flavoured Tang
Description: In an orange flavoured Tang powdered soft drink (market product) sweetened with sucrose plus high intensity sweetener and containing citric acid, C18:2-gaba and C18:2-pro were tested.
All samples were evaluated by expert tasters. Tasters were asked to describe the samples focusing on authentic taste, mouthfeel & body, enhancement, richness, juiciness, long lastingness, salivation, sweetness, masking off notes of high intensity sweetener
Base is Orange Flavoured Tang

[5] = Tasting in mango still beverage, 4% clear mango juice; settings: 0.5 ppm; 4% clear mango juice (30% reduced juice)
Description: (§6) Mango Flavoured Still Beverage Containing Different Levels of Juice,
(§7) In a Mango flavoured still beverage, sweetened with 8% sucrose and containing 0.1% citric acid and 1%, 4% and 6% clear mango juice flavoured with a proprietary Mango flavour @ 0.05%, C18:2-gaba and C18:2-Pro were added, as such (separate) and in combination.
(§8) All samples were evaluated by expert tasters. Tasters were asked to describe the samples focusing on authentic taste, juicy mouthfeel, enhancement, richness, juiciness, long lastingness, salivation, sweetness.
In a Mango flavoured still beverage, sweetened with 8% sucrose & containing 0.1% citric acid and 4% clear mango juice flavoured with Mango flavour @ 0.05%, C18:2-gaba and C18:2-Pro were added, as such (separate) and in combination.
Base is water, 8% sucrose, 0.1% citric acid, 4% clear mango juice (30% reduced juice), flavoured with Mango flavor, dosed at 0.05%

[6] = Tasting in mango still beverage, 6% clear mango juice; settings: 0.5 ppm; 6% clear mango juice (full juice)
Description: as §6, §7, §8
In a Mango-flavoured still beverage, sweetened with 8% sucrose & containing 0.1% citric acid and 6% clear mango juice flavoured with Mango flavour@0.05%, C18:2-gaba and C18:2-Pro were added, as such (separate) and in combination.
Base is water, 8% sucrose, 0.1% citric acid, 6% clear mango juice (full juice), flavoured with Mango flavor, dosed at 0.05%.

Test in orange beverage = settings: 1 ppm; water, 7% sugar (8% sucrose elsewhere in the source), 0.1% citric acid, orange flavour 0.06%
Description: as §3
Base is water, 7% sugar, 0.1% citric acid, proprietary orange flavour @ 0.06%.
as §4
Base is water, 7% sugar, 0.1% citric acid, proprietary orange flavour @ 0.06%
as §5
Samples were evaluated by expert tasters. Tasters were asked to describe the samples focusing on authentic taste, mouthfeel, fullness, salivation, sweetness, juiciness, richness, long lastingness and fattiness
Comparison in an Orange Drink
Base: water, 8% sucrose, 0.1% citric acid, proprietary orange flavour @ 0.06%.

Test in lemon beverage = settings: 1 ppm; water, 7% sucrose, 0.15% citric acid, lemon flavor
Description: as §3
Basis water, 7% sucrose, 0.15% citric acid, proprietary lemon flavor
as §4

Tasting in soy sauce = settings: 0.5 ppm in pure salt reduced kikoman soy sauce (9% salt)
Description: (§9) The following formulations were prepared and tasted by trained panelists.
(§10) Salt level pure product between 5-40%
(§11) Salt level in application 0.3-1.0%
as §1
Test on Kikkoman Soy Sauce Low Salt
Base is Kikkoman soy sauce
(§12) Samples were prepared and evaluated by expert tasters. Tasters were asked to describe the samples focusing on authentic taste, mouthfeel, fullness, salivation, salty-ness, umami, sweetness, juiciness, richness, long lastingness and fattiness.

Tasting in fish sauce = settings: 0.5 ppm in pure fish sauce (27% salt)
Description: as §9, §10, §11, §12

[7] = Tasting in low fat mayonnaise; settings: 0.5 ppm in low fat mayonnaise (27% fat)
Description: as §9
Low fat Mayonnaise (27% Fat, 9% carbohydrates (of which 5% sugar), 1.4% salt)
as §1
Calve 60% Reduced Fat Mayonnaise
Base is Calve Mayonnaise 60% reduced fat (market Product)
as §12
Low fat Mayonnaise (27% Fat)

[8] = Tasting in low fat salad dressing; settings: 0.5 ppm in low fat salad dressing (13.6% fat)
Description: as §9
low fat salad dressing (13.6% Fat, 8%, carbohydrates (of which 5.3% sugar))
as §1
Calve Salad Dressing Low Fat (13.6% Fat):
Base is Calve salad dressing (market product)
as §12
Low fat salad dressing (13.6% Fat)

[9] = Tasting in chicken bouillon; settings: 0.7% salt, 0.5% fat
Description: as §9
Standard Chicken bouillon base, 0.7% salt, 0.5% fat
as §12
Test in Soups and Bouillons
Standard Chicken Bouillon Base

Tasting in beef jus = settings: 40 PPB in beef jus
Description: as §9, §12

[10] = Tasting in spreadable cheese; settings: 0.5 PPM in spreadable cheese (Eru)
Description: as §9, §1
Test on “Eru Prestige” Spreadable Cheese
Base is Eru prestige (market product)
as §12

Tasting in cheese sauce = settings: 0.5 PPM in cheese sauce 5% fat 1.6% salt
Description: as §9
Cheese sauce: 5% fat 1.6% salt
as §12
Cheese Sauce: 5% Fat 1.6% Salt

[11] = Tasting on fried potato snack product; settings: 35% fat, cheese seasoning
Description: as §9
A snack product consisting of a fried potato base, containing 35% fat and flavored with cheese seasoning containing salt, MSG, dairy, organic acids, sugars, and a flavour formulation. The following compounds were added to the snack product at the indicated levels and the tasting results are reported: […]

[12] = Tasting on air expanded base; settings: 3% fat, cheese seasoning
Description: as §9
An air expanded base (Rice, wheat, Tapioca, potato, salt, sugar, modified starch), containing 3% fat and flavored with cheese seasoning containing salt, MSG, dairy, organic acids, sugars and flavor. The following compounds were added to the base at the indicated levels and the tasting results are reported: […]

[13] = Tasting in vanilla milk 0.15% fat; settings: 1 ppm, 4% sucrose, Vaniline 10 ppm + vanilla extract 0.03%
Description: as §1
Base: Milk 0.15% fat, sweetened with 4% sucrose by weight, flavoured with proprietary
Vaniline flavour @ 10 ppm+Vanilla ext. @ 0.03%
as §3
Comparison in a Vanilla Milk Drink
Vaniline @ 10 ppm+Vanilla extract @ 0.03%
Base: Milk 0.15% fat, sweetened with 4% sucrose by weight, flavoured with proprietary Vaniline @ 10 ppm+Vanilla extract @ 0.03%

[14] = Test in pear flavoured drink; settings: 1 ppm; water, 7% sugar (8% elsewhere in the source), 0.1% citric acid, pear flavour 0.025%
Description: as §1
Test in Pear Flavoured Drink:
Base: water, 7% sugar, 0.1% citric acid, proprietary pear flavour at 0.025%
as §3
Comparison in a Pear Drink
Base is water, 8% sugar, 0.1% citric acid, proprietary pear flavour at 0.025%

[15] = Test in pineapple flavoured drink; settings: 1 ppm; water, 8% sugar, 0.1% citric acid, pineapple flavour 0.03%
Description: as §1
Test in Pineapple Flavoured Drink:
Base is water, 8% sugar, 0.1% citric acid and proprietary pineapple flavour at 0.03%
as §3

## CCCCCCCCCCCCCCCCCC(=O)NC(CC(C)C)C(=O)O (stereo not drawn) [C18:0-leu]
[1]; 2 ppm
  tasting result: fruity authentic strawberry, stronger strawberry, ripe, long lasting, juicy, creamy yoghurt
[1]; 2 ppm, listed as C18:0 leu
  tasting result: Very juicy full, 3D, stronger nicer strawberry, long lasting nice creamy aftertaste
[1]; 5 ppm
  tasting result: Very juicy full, 3D, stronger nicer strawberry, salivating long lasting
[2]
  tasting result: very juicy strawberry full, 3D, stronger strawberry, long lasting and creamy
[3]; 2 ppm
  tasting result: fruity strawberry like, ripe, long lasting
[4]
  tasting result: fruity authentic strawberry, stronger strawberry, ripe, long lasting, juicy

## CCCCC/C=C\C/C=C\CCCCCCCC(=O)N1CCC[C@H]1C(=O)O [C18:2-Pro, N-linoleoyl-Pro]
Test on Tang
  tasting result: very fresh, enhances sweet juicy orange notes, characteristic of authentic fresh orange fruit. Additionally, the off-notes of the high intensity sweetener were suppressed
[3]; 0.5 ppm
  tasting result: more sweet, sugar-like, very juicy and long lasting sweet, salivating
[5]
  tasting result: more sweet, sugar-like, very juicy and long lasting sweet, salivating
[6]
  tasting result: more sweet, sugar-like, very juicy and long lasting sweet, salivating, syrupy
Test in orange beverage
  tasting result: very juicy, authentic orange
Test in lemon beverage
  tasting result: very juicy, more citral like, very authentic

## CCCCCCCC/C=C\CCCCCCCC(=O)NC1(C(=O)O)CC1 [C18:1-ACCA, N-oleoyl 1-amino-cyclopropyl carboxylic acid]
Tasting in soy sauce
  tasting result: strong upfront saltiness lingering, very strong saltiness
Tasting in fish sauce
  tasting result: strong saltiness lingering and with a strong body and mouthfeel
[7]
  tasting result: nicely balanced compositions with a full mouthfeel and a more eggy taste; also recorded: Nice balanced, full mouthfeel, increased eggyness
[8]
  tasting result: more mouthfeel with body and less acidic; also recorded: Increased mouthfeel body less acidic
[9]; 0.2 PPM in chicken bouillon base
  tasting result: Saltier, Stronger and more umami
[9]; 0.5 PPM in chicken bouillon base
  tasting result: More body and fatty notes, salivating and good aftertaste
Tasting in beef jus
  tasting result: more salty, fatty, total profile is enhanced
[10]
  tasting result: Strong umami, lingering cheese bite
Tasting in cheese sauce
  tasting result: Strong umami, cheese bite, expanding
[11]; 0.5 ppm on fried potato snack
  tasting result: Increased salty
[11]; 1 ppm on fried potato snack
  tasting result: Increased Umami, salty
[12]; 0.5 ppm on air expanded base
  tasting result: Increased salty
[12]; 1 ppm on air expanded base
  tasting result: Increased Umami, salty

## CCCCC/C=C\C/C=C\CCCCCCCC(=O)N[C@@H](CC(N)=O)C(=O)O [C18:2-asn, N-linoleoyl-Asn]
[1]; 2 ppm
  tasting result: green fresh, nice, fatty nice fuller
[4]
  tasting result: fuller, sweeter, jammy aftertaste, long lasting
[13]
  tasting result: sweeter more fatty round
[14]
  tasting result: very ripe, authentic pear, very juicy, long lasting
[15]
  tasting result: very ripe, jammy, long lasting, authentic

Source: patent US11091429B2, “Organic compounds” (Givaudan SA, priority 2012, dated 2021)
